Measured values as given in ChEMBL document CHEMBL1146553, “Antiparasitic alkaloids from Psychotria klugii” (J Nat Prod, 2003).
≈ marks a conversion by molar mass, not a printed value. Calls of active or inactive are those of the source. No cut-off for these calls is given here.

How the values were obtained:
in vitro [1] = conditions: monkey, Vero cells
Description: Selectivity index, ratio of IC50 for african green monkey (Cercopithecus aethiops) Vero cells to IC50 for chloroquine-sensitive Plasmodium falciparum D6

Leishmania donovani = experiment: Antileishmanial activity against Leishmania donovani promastigotes after 72 hrs; type: functional, organism-based
Plasmodium falciparum [2] = experiment: Antimalarial activity against chloroquine-sensitive Plasmodium falciparum D6 by LDH reporter assay; type: functional, organism-based
Vero [3] = experiment: Cytotoxicity against african green monkey Vero cells at 10 ug/ml; type: cell-based; conditions: chlorocebus sabaeus
in vitro [4] = conditions: monkey, Vero cells; remark: listed apart in the source
Description: Selectivity index, ratio of IC50 for african green monkey (Cercopithecus aethiops) Vero cells to IC50 for chloroquine-resistant Plasmodium falciparum W2

Plasmodium falciparum [5] = experiment: Antimalarial activity against chloroquine-resistant Plasmodium falciparum W2 by LDH reporter assay; type: functional, organism-based
SK-MEL = experiment: Cytotoxicity against human SK-MEL cells; type: functional, cell-based
[6] = Specific index, ratio of IC50 for human HL60 cells to MIC for LFA1:CD11a/CD18/ICAM1- mediated aggregation in PMA-induced human HL60 cells; type: functional, HL-60
HL-60 = experiment: Cytotoxicity against human HL60 cells by XTT assay; type: functional, cell-based
SK-OV-3 = experiment: Cytotoxicity against human SKOV3 cells; type: functional, cell-based
BT-549 = experiment: Cytotoxicity against human BT549 cells; type: functional, cell-based
KB = experiment: Cytotoxicity against human KB cells; type: functional, cell-based
Vero [7] = experiment: Cytotoxicity against african green monkey Vero cells; type: cell-based; conditions: chlorocebus sabaeus
[8] = target: T1, Integrin alpha-L (Homo sapiens) (UniProt P20701); experiment: Inhibition of LFA1:CD11a/CD18/ICAM1- mediated aggregation in PMA-induced human HL60 cells; type: cell-based; conditions: HL-60
T1 sequence (whole entry): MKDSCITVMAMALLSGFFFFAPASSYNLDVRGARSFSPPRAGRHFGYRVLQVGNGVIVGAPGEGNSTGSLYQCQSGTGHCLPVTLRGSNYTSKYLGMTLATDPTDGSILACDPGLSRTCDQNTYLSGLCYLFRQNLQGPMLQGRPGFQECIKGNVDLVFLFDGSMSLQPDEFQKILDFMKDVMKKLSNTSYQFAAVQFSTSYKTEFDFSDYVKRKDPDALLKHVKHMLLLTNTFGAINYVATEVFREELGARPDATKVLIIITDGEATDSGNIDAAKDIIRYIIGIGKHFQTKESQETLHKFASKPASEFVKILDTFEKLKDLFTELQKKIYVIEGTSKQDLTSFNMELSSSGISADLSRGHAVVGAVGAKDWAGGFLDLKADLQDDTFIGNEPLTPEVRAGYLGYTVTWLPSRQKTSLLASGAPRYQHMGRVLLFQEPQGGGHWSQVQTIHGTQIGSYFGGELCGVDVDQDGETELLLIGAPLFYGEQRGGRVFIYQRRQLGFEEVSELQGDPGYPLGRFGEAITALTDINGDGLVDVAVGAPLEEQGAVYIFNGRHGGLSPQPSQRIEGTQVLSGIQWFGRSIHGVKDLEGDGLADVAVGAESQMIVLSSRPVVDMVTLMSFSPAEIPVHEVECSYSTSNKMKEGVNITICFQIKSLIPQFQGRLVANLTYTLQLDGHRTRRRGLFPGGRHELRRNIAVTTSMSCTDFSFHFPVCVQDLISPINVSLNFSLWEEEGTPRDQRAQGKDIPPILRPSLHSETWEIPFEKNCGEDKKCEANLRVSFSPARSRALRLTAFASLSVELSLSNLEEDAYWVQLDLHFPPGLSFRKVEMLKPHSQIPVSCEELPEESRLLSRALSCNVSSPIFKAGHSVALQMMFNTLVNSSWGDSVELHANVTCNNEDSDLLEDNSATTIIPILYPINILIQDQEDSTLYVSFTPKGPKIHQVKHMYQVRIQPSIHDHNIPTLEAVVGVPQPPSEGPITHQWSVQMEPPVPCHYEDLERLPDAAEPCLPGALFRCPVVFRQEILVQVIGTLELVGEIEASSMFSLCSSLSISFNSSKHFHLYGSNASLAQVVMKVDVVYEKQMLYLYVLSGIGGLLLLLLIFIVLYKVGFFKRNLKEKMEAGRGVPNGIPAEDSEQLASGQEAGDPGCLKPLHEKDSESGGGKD

[9] = Specific index, ratio of IC50 for human HL60 cells to MIC for LFA1:CD11a/CD18/ICAM1-mediated human HL60 cell adhesion to human HeLa cells; type: functional
[10] = target: T1, Integrin alpha-L (Homo sapiens); experiment: Inhibition of LFA1:CD11a/CD18/ICAM1-mediated human HL60 cell adhesion to human HeLa cells expressing ICAM1 by fluorescence analysis; type: cell-based

SMILES | selectivity ratio (in vitro [1]) | IC50 (Leishmania donovani) [µg/mL] | IC90 (Leishmania donovani) [µg/mL] | IC50 (Plasmodium falciparum [2]) [µg/mL] | Activity (Vero [3]) | selectivity ratio (in vitro [4]) | IC50 (Plasmodium falciparum [5]) [µg/mL] | IC50 (SK-MEL) [µg/mL] | Ratio [6] | IC50 (HL-60) [µg/mL] | IC50 (SK-OV-3) [µg/mL] | IC50 (BT-549) [µg/mL] | IC50 (KB) [µg/mL] | IC50 (Vero [7]) [µg/mL] | MIC [8] [µg/mL] | Ratio [9] | Activity [10]
CC[C@H]1CN2CCc3cc(OC)c(OC)cc3[C@@H]2C[C@@H]1C[C@@H]1NCCc2cc(O)c(O)cc21 | > 7 | 7.5 (≈ 16.6 µM) | 19 (≈ 42 µM) | 1.5 (≈ 3.31 µM) | Non-toxic | > 3 | 3.07 (≈ 6.78 µM) |  |  |  |  |  |  |  |  |  | 
C[C@@H]1[C@H](O)[C@@H](C)/C=C/C=C/C=C/C=C/C=C/C=C/C=C/[C@H](O[C@@H]2O[C@H](C)[C@@H](O)[C@H](N)[C@@H]2O)C[C@@H]2O[C@](O)(C[C@@H](O)C[C@@H](O)[C@H](O)CC[C@@H](O)C[C@@H](O)CC(=O)O[C@H]1C)C[C@H](O)[C@H]2C(=O)O [AMPHOTERICIN B] |  | 0.17 (≈ 0.184 µM) | 0.28 (≈ 0.303 µM) |  |  |  |  |  |  |  |  |  |  |  |  |  | 
C[C@@H]1CC[C@H]2[C@@H](C)C(=O)O[C@@H]3O[C@@]4(C)CC[C@@H]1[C@]32OO4 [ARTEMISININ] | > 699 |  |  | 0.0143 (≈ 0.0506 µM) | Non-toxic | > 1180 | 0.0085 (≈ 0.0301 µM) |  |  |  |  |  |  |  |  |  | 
CC[C@H]1CN2CCc3cc(OC)c(OC)cc3[C@@H]2C[C@@H]1C[C@H]1NCCc2cc(O)c(OC)cc21 [CEPHAELINE] | 132 | 0.03 (≈ 0.0643 µM) | 1.5 (≈ 3.21 µM) | 0.038 (≈ 0.0814 µM) |  | 193 | 0.0277 (≈ 0.0594 µM) | 0.25 (≈ 0.536 µM) | 2.17 | 14.9 (≈ 31.9 µM) | 0.18 (≈ 0.386 µM) | 0.86 (≈ 1.84 µM) | 0.33 (≈ 0.707 µM) | 5.3 (≈ 11.4 µM) | 6.9 (≈ 14.8 µM) |  | 
CCN(CC)CCCC(C)Nc1ccnc2cc(Cl)ccc12 (centres undefined) [CHLOROQUINE] |  |  |  |  | Non-toxic |  |  |  |  |  |  |  |  |  |  |  | 
C=C1[C@@H](C)[C@H]2[C@H](Cc3ccccc3)NC(=O)[C@]23OC(=O)/C=C/[C@H](O)CCC[C@@H](C)C/C=C/[C@H]3[C@@H]1O [CYTOCHALASIN B] |  |  |  |  |  |  |  |  | 13 | > 30 |  |  |  |  | 2.5 (≈ 5.21 µM) | >5.5 | 
COc1cccc2c1C(=O)c1c(O)c3c(c(O)c1C2=O)C[C@@](O)(C(=O)CO)C[C@@H]3O[C@H]1C[C@H](N)[C@H](O)[C@H](C)O1 [DOXORUBICIN] |  |  |  |  |  |  |  | 1.57 (≈ 2.89 µM) |  |  | 1.53 (≈ 2.81 µM) | 1 (≈ 1.84 µM) | 1.7 (≈ 3.13 µM) |  |  |  | 
CC[C@H]1CN2CCc3cc(OC)c(OC)cc3[C@@H]2C[C@@H]1C[C@H]1NCCc2cc(OC)c(OC)cc21 [EMETINE] | 6 | 0.03 (≈ 0.0624 µM) | 0.13 (≈ 0.27 µM) | 0.0727 (≈ 0.151 µM) |  | 5 | 0.078 (≈ 0.162 µM) |  | 1.53 | 0.38 (≈ 0.791 µM) |  |  |  | 0.42 (≈ 0.874 µM) | 0.26 (≈ 0.541 µM) |  | 
CC[C@H]1CN2CCc3cc(OC)c(OC)cc3[C@@H]2C[C@@H]1C[C@@H]1NCCc2cc(O)c(OC)cc21 [ISOCEPHAELINE] | > 54 | 0.45 (≈ 0.964 µM) | 0.98 (≈ 2.1 µM) | 0.187 (≈ 0.4 µM) | Non-toxic | > 35 | 0.29 (≈ 0.621 µM) | > 10 |  |  | > 10 | > 10 | > 10 |  |  |  | 
CC[C@H]1CN2CCc3cc(O)c(OC)cc3[C@@H]2C[C@@H]1C[C@@]1(O)NCCc2cc(O)c(OC)cc21 [KLUGINE] | > 265 | 0.4 (≈ 0.854 µM) | 2.5 (≈ 5.34 µM) | 0.0377 (≈ 0.0805 µM) | Non-toxic | > 217 | 0.0463 (≈ 0.0988 µM) | > 10 | 1.2 | 25 (≈ 53.4 µM) | > 10 | > 10 | > 10 |  | 20.8 (≈ 44.4 µM) |  | inactive
N=C(N)c1ccc(OCCCCCOc2ccc(C(=N)N)cc2)cc1 [PENTAMIDINE] |  |  | 2.4 (≈ 7.05 µM) |  |  |  |  |  |  |  |  |  |  |  |  |  | 
